No end group written: not given here.
Columns and labels:
GST [1] = molecular target: T1, GST (Schistosoma japonicum, UniProt P08515); experiment: biochemical; assay type: biochemical; conditions: for inhibition of GST activity, in words: control peptides, CDNB or DCNB as substrates; for Specific GST activity: mean ± SD of triplicate, control 2.80 ± 0.01; for order of inhibition efficiencies: with the use of CDNB or DCNB as the substrates, inhibitors 1 μM
T1 construct: purchased Sigma-Aldrich
Experimental: Figure 3 Effects of F1 and F2 peptides on the activity of GST (μmol/mg/min). The activity was measured by monitoring the GST activity with different peptide concentrations, 1 mM glutathione (GSH) and 1 mM CDNB in 100 mM potassium phosphate buffer (pH6.5) at 25°C.
(§1) The peptide concentration resulting in 50% inhibition (IC50) was determined from a plot of remaining activity versus peptide concentration. Protein concentration was measured according to the Lowry method. Enzyme inhibitory kinetic studies were carried out using various concentrations of glutathione and CDNB and different concentrations of synthetic peptides (0.8, 1.6, 3.2 μM).

[2] = binding of synthesized peptides to glutathione Sepharose 4B beads; conditions: for binding to glutathione Sepharose 4B beads, in words: control peptides lacking glutathione-interacting residues
Experimental: The binding characteristics of selected peptides to glutathione were determined according to the analysis of binding of synthesized peptides to the glutathione Sepharose 4B beads. The amount of glutathione in the glutathione Sepharose 4B beads was estimated according to the assumption (according to the manufacturere's information) that there are about 200–400 μmol glutathione/g dried beads. An average value of 300 μmol glutathione/g dried beads was used to calculate the amount of glutathione in the glutathione Sepharose 4B beads. In our experiments, appropriate amount of wet glutathione Sepharose 4B beads (equal to 1 mg dry beads) was added to a 1.5 ml Eppendorf tube, and different amounts of synthesized peptides were added into the tube. After binding for 10 min at 37°C, the binding complexes were separated by centrifugation (12,000 × g for 10 min) and concentrations of bound and free peptides were determined by using the Lowry method. Scatchard analysis was used to determine the Kd and Bmax values. Bmax means the maximum binding sites of synthesized peptide on glutathione Speharose 4B beads (μmol peptide/μmol glutathione). Kd is a dissociation constant (pM). Thus, a low Kd value indicates a high affinity.

GST [3] = molecular target: T1, GST; experiment: biochemical; assay type: biochemical; conditions: inhibitor 1 μM, DCNB 1 mM, glutathione 1 mM, 25°C; for Specific GST activity: mean ± SD of triplicate, control 4.51 ± 0.02
[4] = test system: cancer cell lines with increased GST expression; conditions: ref [25]; cited from earlier work
Excerpt: (§2) The development of resistance to anticancer agents is a primary concern in cancer chemotherapy.

GST [5] = molecular target: T1, GST; experiment: biochemical; assay type: biochemical; conditions: for effect on Vmax and Km, in words: changing glutathione and peptide concentrations
Experimental: To obtain information on the nature of the inhibition by F1 and F2 peptides, GST activity was measured with variable concentrations of glutathione. Here, we applied a new model in describing enzyme inhibitor (Fig. 4).
The Lineweaver-Burk plot for glutathione as the variable peptide concentration was applied to determine the types of inhibition caused by F1 and F2 peptides. The plot provides a useful graphical method for analysis of the Michaelis-Menten equation. The effects of the peptide on GST-catalyzed reaction kinetics were determined by analysis of apparent Vmax, inhibitor constant Ki and [I]/Ki values.
Figure 5 Lineweaver-Burk plot of the GST activity with varying glutathione (GSH) concentrations. A): The activity was measured with 1 mM CDNB, and different concentrations of GSH, and the F1 peptide. B): The activity was measured with 1 mM CDNB, and different concentrations of GSH, and the F2 peptide.
as §1

GST [6] = conditions: first-generation GST inhibitors; no reference given; cited from earlier work
Excerpt: as §2

[7] = after elution with elution buffer
[8] = before elution, ratio of peptide concentrations after and before binding
[9] = inhibitor 1 μM, CDNB 1 mM, glutathione 1 mM, 25°C, control 100%
[10] = inhibitor 1 μM, CDNB 1 mM, glutathione 1 mM, 25°C
[11] = control 100%, % sign missing in F1 cell

T1 sequence (P08515 whole entry): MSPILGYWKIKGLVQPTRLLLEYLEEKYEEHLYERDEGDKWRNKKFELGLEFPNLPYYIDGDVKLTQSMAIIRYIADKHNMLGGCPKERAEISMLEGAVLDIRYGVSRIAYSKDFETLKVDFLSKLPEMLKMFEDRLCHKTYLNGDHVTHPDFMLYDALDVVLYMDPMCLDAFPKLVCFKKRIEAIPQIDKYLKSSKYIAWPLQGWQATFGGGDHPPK

KWNKFELGLEFPL [F4 peptide, control peptide F4, lacking Arg41, Lys44 and Asn53 residues]
inhibition of GST activity, in words (GST [1]): could not find any significant inhibition of the GST activity
Binding efficiency [2, 7]: 2.5%
Binding efficiency [2, 8]: 2.6%
binding to glutathione Sepharose 4B beads, in words [2]: could not bind efficiently

C=CC1=C(C)c2cc3[n-]c(cc4[n-]c(cc5nc(cc1n2)C(C)=C5C=C)c(C)c4CCC(=O)O)c(CCC(=O)O)c3C.O.[Fe+2] [hematin]
GST activity remaining, % of control (GST [1]; [9]): 35.2%
Specific GST activity (GST [1]; [10]): 0.99 ± 0.01 units/mg
order of inhibition efficiencies (GST [1]): tannic acid > cibacron blue > F2 peptide > hematin > F1 peptide > ethacrynic acid
GST activity remaining, % of control (GST [3]; [11]): 42.1%
Specific GST activity (GST [3]): 1.90 ± 0.02 units/mg

C=C[C@H]1C[N@@]2CC[C@H]1C[C@H]2[C@H](O)c1ccnc2ccc(OC)cc12 [quinine]
reversal of resistance to melphalan and doxorubicin [4]: reported to reverse the resistance to melphalan and doxorubicin

KWRNKKFELGLEFPNL [F2 peptide]
IC50 (GST [1]): 600 nM
Ki (GST [5]; F2 peptide 0.8 μM, competitive): 1530 nM
Ki (GST [5]; F2 peptide 1.6 μM, competitive): 1600 nM
Ki (GST [5]; F2 peptide 3.2 μM, competitive): 2420 nM
effect on Vmax and Km, in words (GST [5]): Km decreased while Vmax remained unchanged

GKIKGV [F3 peptide, control peptide F3, lacking Tyr6, Trp7 and Leu12]
inhibition of GST activity, in words (GST [1]): could not find any significant inhibition of the GST activity
Binding efficiency [2, 7]: 1.2%
Binding efficiency [2, 8]: 1.2%
binding to glutathione Sepharose 4B beads, in words [2]: could not bind efficiently

GYWKIKGLV [F1 peptide]
IC50 (GST [1]): 800 nM
Ki (GST [5]; F1 peptide 0.8 μM, noncompetitive): 4000 nM
Ki (GST [5]; F1 peptide 1.6 μM, noncompetitive): 4570 nM
Ki (GST [5]; F1 peptide 3.2 μM, noncompetitive): 5820 nM
effect on Vmax and Km, in words (GST [5]): Vmax decreased while Km remained unchanged

Nc1c(S(=O)(=O)O)cc(Nc2ccc(Nc3nc(Cl)nc(Nc4ccccc4S(=O)(=O)O)n3)c(S(=O)(=O)O)c2)c2c1C(=O)c1ccccc1C2=O [cibacron blue]
remaining activity at 1 µM (GST [1]; [9]): 18.3%
Specific GST activity (GST [1]; [10]): 0.51 ± 0.01 units/mg
order of inhibition efficiencies (GST [1]): tannic acid > cibacron blue > F2 peptide > hematin > F1 peptide > ethacrynic acid
remaining activity at 1 µM (GST [3]; [11]): 21.3%
Specific GST activity (GST [3]): 0.96 ± 0.01 units/mg

C=C(CC)C(=O)c1ccc(OCC(=O)O)c(Cl)c1Cl [ethacrynic acid]
Specific GST activity (GST [1]; [10]): 1.54 ± 0.01 units/mg
Specific GST activity (GST [3]): 3.66 ± 0.02 units/mg
outcome in clinical trials (GST [6]): unsuccessful in clinical trials

tannic acid
GST activity remaining, % of control (GST [1]; [9]): 5.6%
Specific GST activity (GST [1]; [10]): 0.16 ± 0.01 units/mg
order of inhibition efficiencies (GST [1]): tannic acid > cibacron blue > F2 peptide > hematin > F1 peptide > ethacrynic acid
GST activity remaining, % of control (GST [3]; [11]): 10.9%
Specific GST activity (GST [3]): 0.49 ± 0.01 units/mg

Reference: publication PMC2662877, “A novel method for screening the glutathione transferase inhibitors” (BMC Biochemistry, 2009)
